In the COVID Moonshot data (paper PMC11187573), “Identification of SARS-CoV-2 Mpro inhibitors through deep reinforcement learning for de novo drug design and computational chemistry approaches” (RSC Medicinal Chemistry, 2024):

Tests used:
[1] = biological target: SARS-CoV-2 Main Protease (SARS-CoV-2) (UniProt P0DTD1)
[2] = biological target: SARS-CoV-2 Main Protease (SARS-CoV-2) (UniProt P0DTD1); remark: listed apart in the source
Protocol: Briefly, compounds were seeded into assay-ready plates (Greiner 384PP, cat# 781280) using an ECHO 650T dispenser and DMSO was back-filled for a uniform concentration in assay plates (DMSO concentration < 1%, final volume = 500 nL.). […] After a quick centrifugation step (1000 rpm, 15 s) the plate is incubated for 15 min at room temperature. […] After centrifugation (1000 rpm, 14 s) the reaction is incubated for 10 min (11-mer) or 5 min (37-mer) at room temperature before quenching with 10 % formic acid. The reactions are analysed with MS using RapidFire (RF) 365 high-throughput sampling robot (Agilent) connected to an iFunnel Agilent 6550 accurate mass quadrupole time-of-flight (Q-TOF) mass spectrometer using electrospray. […] Dose response curves uses an 11-point range of 100--0.0017 µM inhibitor concentrations. RapidFire integrator software (Agilent) was used to extract the charged states from the total ion chromatogram data followed by peak integration. For the 11-mer peptide the m/z (+1) charge states of both the substrate (1191.67 Da) and cleaved N-terminal product TSAVLQ (617.34 Da) were used and the 37-mer peptide the m/z (+2) charge states of the substrate (3960.94 Da) and m/z (+1) of the cleaved C-terminal product [sequence] (1125.57 Da). Percentage conversion (product peak integral / (product peak integral + substrate peak integral))*100) and percentage inhibitions were calculated and normalised against DMSO control with deduction of any background signal in Microsoft Excel. IC50s were calculated using Levenberg–Marquardt algorithm used to fit a restrained Hill equation to the dose-response data with both GraphPad PRISM and CDD.

Compound	inhibition ([1]; 20.0 µM) [%]	inhibition ([1]; 50.0 µM) [%]	inhibition ([2]; 50.0 µM) [%]	relative solubility at 20 uM	relative solubility at 100 uM	IC50 [2] [µM]	inhibition ([2]; 20.0 µM) [%]
Cc1ncc2c(n1)CCC(NC(=O)NCc1cccc(N3C(=O)NC4(CCCC4)C3=O)c1)C2 (stereo not given)	-7.81	-6.65	0	0.99	0.97		
C=CC(=O)N(c1ccc(C(C)(C)C)cc1)C(C(=O)NCC)c1cccnc1 (stereo not given)	57	50.2	100	0.99	1	19.4	52.6
O=C(O)[C@@H](Cc1nc(=O)cc[nH]1)NC[C@@H]1C[C@@H]2C=C[C@H]1C2 (stereo in doubt)	13.7	26.4	29.5	1	1		
Cc1nnc(NC(=O)Cc2cccc(Cl)c2F)n1C	-12.7	-10.8	0	1.01	1		
Cc1cccc(-c2nnnn2C2CC2C)c1NC(=O)CCc1cccnc1 (stereo not given)		-16.5	13.5	1	1		0
CNC(=O)OC1CCN(S(=O)(=O)c2ccccc2)CC1		-16.3	0	1	1		4.89
CC1CCCC(OCc2cccc(NC(=O)NC(C)c3ccn[nH]3)c2)C1 (stereo not given)		-40.1	0	1	0.85		0
C=CC(=O)N(c1ccc(C2(C)CC2)cc1)C(C(=O)Nc1ccc(OC)cc1)c1cccnc1 (stereo not given)		12.6	0	0.96	0.62		0
O=C1CC(Oc2cccc(C(=O)NCc3cncnc3)c2)N1 (stereo not given)	21.6	25.1	28.1	1	1		
CNCc1c[nH]c2ccc(F)cc12		32.7	16.1	0.99	1		3.09
COc1ccccc1OC(C)CNC(=O)c1cc(=O)[nH]c2cc(F)ccc12 (stereo not given)	20	59	5.65	1	0.99		
O=C(Cc1ccc(O)cc1)Nc1cccc2cc[nH]c12	-9.57	-4.9	0	1	1		
Cc1ccncc1NC(=O)Nc1ccccc1		21.1	-0.18	1	1		0
C=CC(=O)N(c1ccc2cc[nH]c2c1)C(C(=O)NC(C)(C)C)c1cccnc1 (stereo not given)	5.38	10.5		0.84	0.93		0
CC(=O)NCc1cccc(NC(=O)Cc2cncnc2)c1	3.15	6.22	0	1.01	1		
NS(=O)(=O)c1ccc(N2CCC(c3ccco3)CC2)cc1	5.4	8.47	38.9	1	0.83		45.9
Cc1ccncc1NC(=O)c1cccc(NC(=O)Nc2cccnc2)c1		-23.3	1.27	1	1		2.38
COc1ccc(C2CC(c3ccccc3)=NN2C(=O)CCl)cc1OC (stereo not given)	100	99.6	100	0.99	0.85	0.421	
CS(=O)(=O)c1ncc(Cl)c(C(=O)Nc2ccccc2Cc2ccccc2)n1	96.3	94.7	100	0.96	0.79	0.826	
O=C(N/N=C/c1c[nH]cn1)C1CCCCC1	-3.95	2.16	-16.3	1.01	1		
N#Cc1ncccc1NC(=O)Cc1cccc(Cl)c1	-10.2	-15.7	0	0.99	1		0
Cc1ccncc1NC(=O)CCNc1ccc(S(N)(=O)=O)cc1		-27.1	0	1	1		0
C=CC(=O)N(c1ccc(C(C)(C)C)cc1)C(C(=O)Nc1cccc(F)c1C)c1cccnc1 (stereo not given)		-14.8	0	1	0.98		0
Cc1cccc(NC2CCN(c3ccc(S(N)(=O)=O)cc3)CC2)c1	-2.59	-0.838	45.9	0.96	0.87		39.4
C=CC(=O)N(c1ccc2ncsc2c1)C(C(=O)NC(C)(C)C)c1cccnc1 (stereo not given)	9.29	0.772		1	1		0

Compound	inhibition ([1]; 20.0 µM) [%]	inhibition ([1]; 50.0 µM) [%]	inhibition ([2]; 50.0 µM) [%]	relative solubility at 20 uM	relative solubility at 100 uM	IC50 [2] [µM]	inhibition ([2]; 20.0 µM) [%]
Cc1ccncc1NC(=O)CN1C(=O)COc2ccc(Cl)cc21	32.8	49.3	67.2	0.99	0.99	38.9	
Cc1ccncc1NC(=O)Cc1cccc(F)c1	39.6	65.3	40.9	1.01	1		
Cc1ccncc1NC(=O)C(C)CC1CC1 (stereo not given)	-2.37	2.12	0	1	1		
C=CC(=O)N(C1CCC2(CCCC2)CC1)C(C(=O)NC(C)(C)C)c1cccnc1 (stereo not given)	-5.6	6.94		1	0.97		0
Cc1ccncc1NC(=O)c1ccc(NC(=O)Nc2cccnc2)cc1		-23	0	1	0.99		3.1
CC1(C)Cc2cccc(OCCNC(=O)c3cc(=O)[nH]c4ccc(Cl)cc34)c2O1	5.99	28.8	18.7	0.97	0.91		
Cc1nc(CCn2c(C3CCC(=O)N3)nnc2N2CCOC(C)(C)C2)n[nH]1 (stereo not given)	-0.233	2.23	4.69	1	1		
C=CC(=O)N(c1ccc(C(F)(F)F)cc1)C(C(=O)NCCc1cccc(F)c1)c1cccnc1 (stereo not given)	50.7	72.7	100	0.99	0.94	6.12	
CS(=O)(=O)NCCCN1CCCc2ccc(S(N)(=O)=O)cc21		-23.8	0	1	1		0
CC(C)(C)NC(=O)C(c1cccnc1)N(C(=O)c1ccco1)c1ccc(C(C)(C)C)cc1 (stereo not given)	74	86.6	23.9	1.01	0.99		
O=C(NCCNc1ccnc2cc(Cl)ccc12)Nc1ccc(F)cc1	20.4	29.5	0	0.99	0.94		0
C=CC(=O)N(c1ccc(C(C)(C)C)cc1)C(C(=O)NC(C)C)c1cccnc1 (stereo not given)	-1.73	0.416	0	1	1		0
O=C(CCl)N1CC2CC1CN2Cc1cccc(Cl)c1 (stereo not given)	82.2	72.7	100	0.99	1	0.655	100
CN(Cc1ccc(OCc2cccs2)cc1)C(=O)Cn1nnc2ccccc21	2.49	10.2		0.56	-0.05		0
C=CC(=O)N(c1ccc(C(F)(F)F)cc1)C(C(=O)Nc1ccccc1Br)c1cccnc1 (stereo not given)	15.6	22		0.94	0.83		9.6
O=C(CC(=O)N1CCOCC1)Nc1ccccc1		-26.9	0	1	1.01		0
O=C(CCl)N1CCN(Cc2cccc3ccccc23)CC1		98.6	100	0.99	0.98	0.9	100
CC(=O)N1CCN(Cc2cccc(C#N)c2)CC1	-0.339	6.59		1	0.99		0
CCC(=O)NCC[C@@H]1CCc2ccc3c(c21)CCO3 (stereo in doubt)	0.473	6.69		1	1		0
N#CC(C(=O)Nc1cccc(Cl)c1)C(=O)c1cccs1 (stereo not given)		31.8	0	1	1		0
CCC(NC(=O)NCc1cnccn1)c1ccccc1OCC(=O)N1CCCC1 (stereo not given)		7.61	9.2	1	1		0
C=CC(=O)N(c1ccc(C(C)(C)C)cc1)C(C(=O)N[C@H]1CC[C@@H](C(=O)OC)C1)c1cccnc1 (stereo in doubt)	7.31	22.2	6.96	1	0.98		0
O=C(NC1CCCCC1NC(=O)c1ccncc1)c1ccccc1 (stereo not given)		-22.4	0	1	1		0
C=CC(=O)N(c1ccc(C2(C)CC2)cc1)C(C(=O)Nc1ccc(OC)cc1C)c1cccnc1 (stereo not given)		6.08	0	1	0.52		0
CC(CCc1ccccc1)N1CCN(C(=O)CCl)CC1 (stereo not given)	45	60.7	91.1	1	1	13.6	62.6

Compound	inhibition ([1]; 20.0 µM) [%]	inhibition ([1]; 50.0 µM) [%]	inhibition ([2]; 50.0 µM) [%]	relative solubility at 20 uM	relative solubility at 100 uM	IC50 [2] [µM]	inhibition ([2]; 20.0 µM) [%]
C=CC(=O)N1CCCN(Cc2ccccc2)CC1	0.947	9.99		1	1		0
CN(CCNC(=O)c1cc(=O)[nH]c2ccccc12)c1ccccc1	-2.32	19.2	8.3	0.91	0.77		
O=C(Cc1c[nH]c2ncccc12)N(Cc1c(F)cccc1Cl)c1ccc2[nH]c(=O)[nH]c2c1	6.29	-1.08	12.4	0.95	0.88		
O=C1Nc2c(Br)cccc2C1=O	-4.89	-4.45	67.4	0.99	0.81	43.1	
O=C(C(F)Cl)N1CCCC(c2nc3ccccc3s2)C1 (stereo not given)	7.1	16.2	0	0.99	0.99		0
N#Cc1cncc(NC(=O)Nc2cccnc2)c1	7.07	17.1	17.4	1	1		
C=CC(=O)N1CCCC(N(CC2CCCCC2)C2CCC(O)CC2)C1 (stereo not given)	-4.47	-0.824	0	1	1		
O=C(Cc1cccnc1)NCc1ccccc1	1.31	7.29	13	1	1		
Cc1ccnc(C)c1NC(=O)NCc1cccc(N2CCOCC2)c1	2.7	-9.74	0	1	1		
O=C(NCc1cccnn1)NC(Cc1ccccc1)c1cccs1 (stereo not given)		13.9	0	1	1		0
CC(NC(=O)c1ccccc1OCC(N)=O)c1cnn(C)c1 (stereo not given)	-1.52	2.68	0	1	1		0
NS(=O)(=O)c1ccc(N2CCC(c3ccncc3)CC2)cc1	0.875	1.65	1.84	1	0.94		1.05
Cc1cc(C)c(C)c(S(=O)(=O)N2CCN(C(=O)c3cc(=O)[nH]c4ccccc34)CC2)c1C	84.4	92.9	88.1	0.75	0.65	3.75	81.7
CCN(CC1COc2ccccc2O1)C(=O)c1cc(=O)[nH]c2ccc([N+](=O)[O-])cc12 (stereo not given)	2.87	-7.35	0	1	1		
O=C(c1cc(=O)[nH]c2ccc(Cl)cc12)N1CCN(S(=O)(=O)c2ccccc2)CC1	10.6	23.9	22.8	0.94	0.93		
C=CC(=O)Nc1cc(C(=O)NC[C@H](Cc2ccccc2)c2ccccn2)ccc1O (stereo in doubt)	0.684	9.48		0.83	0.82		0
C=CC(=O)N(c1ccc(N(C)C)c(C)c1)C(C(=O)Nc1cccc(CC)c1)c1cccnc1 (stereo not given)	7.05	11.7		0.85	0.68		0
COC1(CC(=O)Nc2cnccc2C)CC1	-5.47	13.8	0	1.01	1		
CNC(=O)OC1CCN(Cc2ccccc2)CC1		17.6	0	0.99	1		0.824
C=CC(=O)N(c1ccc2ncsc2c1)C(C(=O)Nc1ccc(OC)cc1C)c1cccnc1 (stereo not given)	3.21	11.3		0.94	0.92		0
Cc1ccncc1NC(=O)Nc1cncc(C#N)c1	3.67	3.96	15.5	1	1		
CNC(=O)OC1CCN(C(=O)c2ccccc2)CC1		19.2	0	1	1		0
O=C1C(=O)N(Cc2ccccc2)c2cc(Br)ccc21	0.852	-0.164	0	0.99	0.59		
Cc1ccncc1NC(=O)Cc1cccc(C#N)c1	33.6	58.3	52.7	1	1.01	43.8	20.5
O=C(Cc1cncnc1)Nc1cc(F)cc(OC2CC(=O)N2)c1 (stereo not given)	52.8	87.8	45.7	0.99	0.99		
